The text below walks through data of US20110306580A1 (DONG WHA PHARMACEUTICAL CO ., LTD., priority 2009, published 2011).

The test system of this test is ROS17/2.8 cells. Description: Cell growth of ROS17/2.8 cells by the MTT method (formed formazan). Format: cell-based, rat. The conditions noted are these: for activity at 0.02 µM: Rattus norvegicus, 2×10^−5M Test Compound solution diluted 1000 fold, read-out: Amount of formed formazan, Solution 8 (Test Compound alone); for activity at 0.02 µM / Amount of formed formazan, Solution 10 (a group of a drug combination): percentage to Solution 7 addition group, about 48 hours, average ± standard deviation of four wells; for Relative index of Solution 10 (a group of a drug combination) / Amount of formed formazan, Solution 10 (a group of a drug combination): Test Compound in combination with 1α,25-dihydroxyvitamin D3; for Relative index of Solution 10 (a group of a drug combination) / Relative index of Solution 8 (Test Compound alone): amount of formed formazan, Solution 7 = 1.00. On the procedure:
100 μL of a 10% FCS-αMEM comprising either DMSO and ethanol (referred to as Solution 7, hereinafter), a Test Compound solution and ethanol (referred to as Solution 8, hereinafter), a 1α,25-dihydroxyvitamin D3 solution and DMSO (referred to as Solution 9, hereinafter) or a Test Compound solution and the 1α,25-dihydroxyvitamin D3 solution (referred to as Solution 10, hereinafter) was dispensed. The ROS17/2.8 cells were inoculated to a medium at a density of 5×10^3 cells/100 μL/well. After culture of the cells for about 48 hours, the effect of Test Compound and 1α,25-dihydroxyvitamin D3 on the cell growth of the ROS17/2.8 cells was evaluated using the MTT method. Namely, after culture of the cells for about 44 hours, an MTT solution (3-[4,5-dimethylthiazol-2-yl]-2,5-diphenyltetrazolium bromide 2 mg/mL) was added in an amount of 25 μL/well, and the cells were further cultured for four hours. After the medium was removed, DMSO was added in an amount of 100 μL/well so as to dissolve the formed formazan. The amount of the formed formazan was determined by measuring the absorbance (at 560 nm) of the solution by a microplate reader.
The 10% FCS-αMEM comprising Solution 7 was prepared by diluting DMSO by 1000 fold with the 10% FCS-αMEM, and diluting ethanol by 10000 fold with the 10% FCS-αMEM. The 10% FCS-αMEM comprising Solution 8 was prepared by diluting a 2×10^−5M Test Compound solution by 1000 fold with the 10% FCS-αMEM, and diluting ethanol by 10000 fold with the 10% FCS-αMEM. The 10% FCS-αMEM comprising Solution 9 was prepared by diluting 2×10^−3M 1α,25-dihydroxyvitamin D3 solution by 10000 fold with the 10% FCS-αMEM, and diluting DMSO by 1000 fold with the 10% FCS-αMEM. The 10% FCS-αMEM comprising Solution 10 was prepared by diluting a 2×10^−5M Test Compound solution by 1000 fold with the 10% FCS-αMEM, and diluting 2×10^−3M 1α,25-dihydroxyvitamin D3 solution by 10000 fold with the 10% FCS-αMEM.
The amount of the formed formazan in each solution addition group was obtained in terms of a percentage to the average value of the amounts of formed formazan in four wells in a Solution 7 addition group. All the determined values were shown in terms of the average value±standard deviation of the four wells of each solution addition group.
Background: Tetrazolium assays rely on reduction of a dye to a coloured formazan, in cell work by metabolically active cells.

Turning to `Cc1nc(-c2ccc(OCCCCCOc3ccc(/C(N)=N/O)cc3)cc2)c(CCNCCCOC(C)C)s1` [Compound 25, N-hydroxy-4-{5-[4-(5-(2-(3-(isopropoxy)propylamino)ethyl)-2-methyl-1,3-thiazol-4-yl)phenoxy]pentoxy}benzamidine], the activity at 0.02 µM was 101 ± 3.2%; the “Relative index of Solution 10 (a group of a drug combination)” value was 1.12; the “Amount of formed formazan, Solution 10 (a group of a drug combination)” value (shortened to “Amount of formed formazan”) was 112 ± 1.5 # %; the “Relative index of Solution 8 (Test Compound alone)” value was 1.01.
Turning to `Cc1sc(N(C)CCO)nc1-c1ccc(OCCCCCOc2ccc(/C(N)=N/O)cc2)cc1` [Compound 7], the activity at 0.02 µM was found to be 109 ± 3.2%; the “Relative index of Solution 10 (a group of a drug combination)” value stood at 1.20; the “Amount of formed formazan” value is recorded as 120 ± 2.3 ## %; the “Relative index of Solution 8 (Test Compound alone)” value is 1.09.
On the same counts, the results for `Cc1sc(N(C)Cc2cccnc2)nc1-c1ccc(OCCCCCOc2ccc(/C(N)=N/O)cc2)cc1` [Compound 9, N-hydroxy-4-{5-[4-(5-methyl-2-(methyl(pyridin-3-ylmethyl)amino)-1,3-thiazol-4-yl)phenoxy]pentoxy}benzamidine] are 108 ± 2.3%, 1.20, 120 ± 2.1 ## % and 1.08.
As for `CCCN(CCC)c1nc(-c2ccc(OCCCCCOc3ccc(/C(N)=N/O)cc3)cc2)c(C(C)C)s1` [Compound 16, N-hydroxy-4-{5-[4-(5-isopropyl-2-dipropylamino-1,3-thiazol-4-yl)phenoxy]pentoxy}benzamidine], the activity at 0.02 µM came out at 107 ± 1.3%; the “Relative index of Solution 10 (a group of a drug combination)” value came out at 1.18; the “Amount of formed formazan” value is 118 ± 3.7 # %; the “Relative index of Solution 8 (Test Compound alone)” value stood at 1.07.
For `CC(C)c1nc(-c2ccc(OCCCCCOc3ccc(/C(N)=N/O)cc3)cc2)c(CCN(C(=O)c2ccncc2)C2CC2)s1` [Compound 30, N-hydroxy-4-{5-[4-(5-(2-(cyclopropyl(pyridin-4-carbonyl)amino)ethyl}-2-isopropyl-1,3-thiazol-4-yl)phenoxy]pentoxy}benzamidine], the activity at 0.02 µM was 99 ± 5.3%; the “Relative index of Solution 10 (a group of a drug combination)” value was 1.13; the “Amount of formed formazan” value is on record as 113 ± 1.2 ## %; the “Relative index of Solution 8 (Test Compound alone)” value came to 0.99.
Take `Cc1nc(-c2ccc(OCCCCCOc3ccc(/C(N)=N/O)cc3)cc2)c(Cn2ccnc2)s1` [Compound 32, N-hydroxy-4-{5-[4-(5-(imidazol-1-ylmethyl)-2-methyl-1,3-thiazol-4-yl]phenoxy}pentoxy}benzamidine]: the activity at 0.02 µM amounted to 97 ± 3.3%; the “Relative index of Solution 10 (a group of a drug combination)” value was determined as 1.10; the “Amount of formed formazan” value was 110 ± 2.4 # %; the “Relative index of Solution 8 (Test Compound alone)” value amounted to 0.97.
As for `CNC(=O)c1sc(N)nc1-c1ccc(OCCCCCOc2ccc(/C(N)=N/O)cc2)cc1` [Compound 31, N-hydroxy-4-{5-[4-(2-amino-5-(N-methylcarbamoyl)-1,3-thiazol-4-yl)phenoxy]pentoxy}benzamidine], the activity at 0.02 µM is 101 ± 2.9%; the “Relative index of Solution 10 (a group of a drug combination)” value is 1.10; the “Amount of formed formazan” value is 110 ± 0.4 # %; the “Relative index of Solution 8 (Test Compound alone)” value was 1.01.
For the compound `CCN(CC)CCc1sc(C)nc1-c1ccc(OCCCCCOc2ccc(/C(N)=N/O)cc2)cc1` [Compound 26, N-hydroxy-4-{5-[4-(5-(2-diethylaminoethyl)-2-methyl-1,3-thiazol-4-yl)phenoxy]pentoxy}benzamidine], the activity at 0.02 µM worked out at 102 ± 2.6%; the “Relative index of Solution 10 (a group of a drug combination)” value is on record as 1.13; the “Amount of formed formazan” value was 113 ± 2.7 # %; the “Relative index of Solution 8 (Test Compound alone)” value stood at 1.02.
`Cc1nc(-c2ccc(OCCCCCOc3ccc(/C(N)=N/O)c(F)c3)cc2)c(C(C)C)s1` [Compound 20, N-hydroxy-2-fluoro-4-{5-[4-(5-isopropyl-2-methyl-1,3-thiazol-4-yl)phenoxy]pentoxy}benzamidine]: the activity at 0.02 µM amounted to 106 ± 3.1%; the “Relative index of Solution 10 (a group of a drug combination)” value came out at 1.13; the “Amount of formed formazan” value is recorded as 113 ± 1.0 ## %; the “Relative index of Solution 8 (Test Compound alone)” value was 1.06.
`Cc1sc(N(C)Cc2ccccc2)nc1-c1ccc(OCCCCCOc2ccc(/C(N)=N/O)cc2)cc1` [Compound 8, N-hydroxy-4-{5-[4-(2-benzylmethylamino-5-methyl-1,3-thiazol-4-yl)phenoxy]pentoxy}benzamidine]: the activity at 0.02 µM amounted to 102 ± 4.9%; the “Relative index of Solution 10 (a group of a drug combination)” value is 1.15; the “Amount of formed formazan” value is given as 115 ± 2.3 ## %; the “Relative index of Solution 8 (Test Compound alone)” value is on record as 1.02.
For the compound `CC(C)c1sc(N(C)Cc2cccnc2)nc1-c1ccc(OCCCCCOc2ccc(/C(N)=N/O)cc2)cc1` [Compound 12, N-hydroxy-4-{5-[4-(5-isopropyl-2-(methyl(pyridin-3-yl-methyl)amino)-1,3-thiazol-4-yl)phenoxy]pentoxy}benzamidine], the activity at 0.02 µM turned out to be 105 ± 3%; the “Relative index of Solution 10 (a group of a drug combination)” value worked out at 1.15; the “Amount of formed formazan” value is 115 ± 4.3 # %; the “Relative index of Solution 8 (Test Compound alone)” value was determined as 1.05.
Consider `CN(C)c1nc(-c2ccc(OCCCCCOc3ccc(/C(N)=N/O)cc3)cc2)c(CCN2CCOCC2)s1` [Compound 29, N-hydroxy-4-{5-[4-(2-dimethylamino-5-(2-(morpholin-4-yl)ethyl)-1,3-thiazol-4-yl)phenoxy]pentoxy}benzamidine], for which the activity at 0.02 µM worked out at 102 ± 5.6%; the “Relative index of Solution 10 (a group of a drug combination)” value was 1.14; the “Amount of formed formazan” value is 114 ± 2.6 ## %; the “Relative index of Solution 8 (Test Compound alone)” value is listed as 1.02.
On the same counts, the results for `Cc1nc(-c2ccc(OCCCCCOc3ccc(/C(N)=N/O)cc3)cc2)c(N(C)C)s1` [Compound 35, N-hydroxy-4-{5-[4-(5-dimethylamino-2-methyl-1,3-thiazol-4-yl)phenoxy]pentoxy}benzamidine] are 101 ± 2.3%, 1.12, 112 ± 3.0 ## % and 1.01.
On to `CN(CCN1CCOCC1)c1nc(-c2ccc(OCCCCCOc3ccc(/C(N)=N/O)cc3)cc2)c(C2CCCC2)s1` [Compound 15, N-hydroxy-4-{5-[4-(5-cyclopentyl-2-(methyl(2-(4-morpholino)ethyl)amino)-1,3-thiazol-4-yl)phenoxy]pentoxy}benzamidine], for which the activity at 0.02 µM turned out to be 103 ± 3%; the “Relative index of Solution 10 (a group of a drug combination)” value came to 1.15; the “Amount of formed formazan” value is recorded as 115 ± 0.8 ## %; the “Relative index of Solution 8 (Test Compound alone)” value came to 1.03.
Turning to `Cc1nc(-c2ccc(OCCCCCOc3ccc(/C(N)=N/O)cc3)cc2)c(CCNC(C)C)s1` [Compound 24, N-hydroxy-4-{5-[4-(5-(2-(isopropylamino)ethyl)-2-methyl-1,3-thiazol-4-yl)phenoxy]pentoxy}benzamidine], the activity at 0.02 µM was 110 ± 4.4%; the “Relative index of Solution 10 (a group of a drug combination)” value is reported as 1.18; the “Amount of formed formazan” value is given as 118 ± 2.9 ## %; the “Relative index of Solution 8 (Test Compound alone)” value is 1.10.
`CNc1nc(-c2ccc(OCCCCCOc3ccc(/C(N)=N/O)cc3)cc2)c(CC2CCCC2)s1` [Compound 6, N-hydroxy-4-{5-[4-(5-cyclopentylmethyl-2-methylamino-1,3-thiazol-4-yl)phenoxy]pentoxy}benzamidine]: the activity at 0.02 µM worked out at 103 ± 2.5%; the “Relative index of Solution 10 (a group of a drug combination)” value amounted to 1.13; the “Amount of formed formazan” value is listed as 113 ± 1.7 ## %; the “Relative index of Solution 8 (Test Compound alone)” value is on record as 1.03.
